Measured values from patent EP0579833B1, “ETHANOLAMINE DERIVATIVES WITH ANTI-POLLAKIURIA ACTIVITY” (FUJISAWA PHARMACEUTICAL CO., LTD., priority 1991, dated 1992).

Assays:
[1] = tested on: isolated rat distal colon; test: Effect on isolated rat distal colon (spontaneous contractions, organ bath); format: tissue-based; conditions: spontaneous contractions of distal colon strip from male SD rats, Tyrode solution, 37°C, 0.5 g tension, observed over 30 minutes
Protocol: Male SD rats (l80∼230 g) were used. Animals were fasted for 24 hours prior to experiment. Distal colon was removed immediately after sacrifice and placed in an organ bath containing 25 ml Tyrode solution aerating with 95% O2, 5% CO2 at 37°C. The strip was mounted under 0.5 g tension and spontaneous contractions were recorded isometrically. After the motility was of a uniform size, test compound was added to an organ bath and the contractions were observed over a 30 minutes period. Effect of test compound was calculated by comparing contractions before and after test compound.

[2] = tested on: isolated non-pregnant rat uterus; test: Effect on isolated non-pregnant rat uterus (spontaneous contractions, organ bath); set-up: species or system tissue; conditions: spontaneous contractions of uterine horn strip from estradiol-treated female SD rats, Locke solution, 37°C, 1 g tension, observed over 20 minutes
Protocol: Female SD rats (l50∼l80 g) were used. 48 and 24 hours prior to use, rats were given estradiol (ovahormon benzoat : Trademark, Teikoku Hormone Mfg. Co., Ltd.) subcutaneously at a dose of 40 µg/rat to induce oestrus. The animals were killed and uterine horns were removed. Each strip was placed in an organ bath containing 25 ml Locke solution aerating with 95% O2, 5% CO2 at 37°C under l g tension. Contractions were recorded isometrically. After the spontaneous contractions were of a uniform size, test compound was added to organ bath. The motility was observed over a 20 minutes period. Effect of test compound was calculated by comparing contractions before and after test compound.

IC50 [1]: 1.9 nM
IC50 [2]: 510 nM
Substance: (1R,1'R,2'R)- and (1R,1'S,2'S)-1-(3-chlorophenyl)-2-[(7-ethoxycarbonylmethoxy-l-hydroxy-l,2,3,4-tetrahydro-2- naphthyl)amino]ethanol hydrochloride [Example 2]
